Holding throughout (format): functional
The subject of experiment [1] is Enterococcus faecium. Description: Synergistic antibiofilm activity against vancomycin-resistant Enterococcus faecium ATCC 700221 in TSB broth assessed as dispersal of glucose-induced biofilm by measuring Nitroxoline MBEC preincubated with glucose for 48 hrs followed by compound addition and measured after 24 hrs by crystal violet staining based checkerboard assay.

The test system of experiment [2] is Enterococcus faecium. Description: Antibiofilm activity against vancomycin-resistant Enterococcus faecium ATCC 700221 in TSB broth assessed as dispersal of glucose-induced biofilm preincubated with glucose for 48 hrs followed by compound addition and measured after 24 hrs by crystal violet staining based analysis.
For experiment [3], the system named is Staphylococcus aureus. Description: Antibiofilm activity against methicillin-resistant Staphylococcus aureus USA 300 in TSB broth assessed as dispersal of glucose-induced biofilm preincubated with glucose for 48 hrs followed by compound addition and measured after 24 hrs by crystal violet staining based analysis.
The subject of experiment [4] is Staphylococcus aureus. Description: Synergistic antibiofilm activity against methicillin-resistant Staphylococcus aureus USA 300 in TSB broth assessed as dispersal of glucose-induced biofilm by measuring Nitroxoline MBEC preincubated with glucose for 48 hrs followed by compound addition and measured after 24 hrs by crystal violet staining based checkerboard assay.

Experiment [5] has as its system Staphylococcus aureus. Briefly: Synergistic antibiofilm activity against methicillin-resistant Staphylococcus aureus USA 300 in TSB broth assessed as dispersal of glucose-induced biofilm by measuring Bithionol MBEC preincubated with glucose for 48 hrs followed by compound addition and measured after 24 hrs by crystal violet staining based checkerboard assay.
The test system of experiment [6] is Staphylococcus aureus. Description: Synergistic antibiofilm activity against methicillin-resistant Staphylococcus aureus USA 300 in TSB broth assessed as dispersal of glucose-induced biofilm preincubated with glucose for 48 hrs followed by compound addition and further incubated for 24 hrs in presence of Nitroxoline by crystal violet staining based checkerboard assay.

In experiment [7] the test system is Staphylococcus aureus. Description: Synergistic antibiofilm activity against methicillin-resistant Staphylococcus aureus USA 300 in TSB broth assessed as dispersal of glucose-induced biofilm preincubated with glucose for 48 hrs followed by compound addition and further incubated for 24 hrs in presence of Bithionol by crystal violet staining based checkerboard assay.

The subject of experiment [8] is Staphylococcus aureus. Description: Synergistic antibiofilm activity against methicillin-resistant Staphylococcus aureus USA 300 in TSB broth assessed as dispersal of glucose-induced biofilm by measuring fractional inhibitory concentration index preincubated with glucose for 48 hrs followed by compound addition and further incubated for 24 hrs in presence of Nitroxoline by crystal violet staining based checkerboard assay.

The test system of experiment [9] is Staphylococcus aureus. Briefly: Synergistic antibiofilm activity against methicillin-resistant Staphylococcus aureus USA 300 in TSB broth assessed as dispersal of glucose-induced biofilm by measuring fractional inhibitory concentration index preincubated with glucose for 48 hrs followed by compound addition and further incubated for 24 hrs in presence of Bithionol by crystal violet staining based checkerboard assay.

The test system of experiment [10] is Enterococcus faecalis. Briefly: Antibiofilm activity against vancomycin-resistant Enterococcus faecalis ATCC 51575 in TSB broth assessed as dispersal of glucose-induced biofilm preincubated with glucose for 48 hrs followed by compound addition and measured after 24 hrs by crystal violet staining based analysis.
For experiment [11], the system named is Enterococcus faecalis. Briefly: Synergistic antibiofilm activity against vancomycin-resistant Enterococcus faecalis ATCC 51575 in TSB broth assessed as dispersal of glucose-induced biofilm by measuring Nitroxoline MBEC preincubated with glucose for 48 hrs followed by compound addition and measured after 24 hrs by crystal violet staining based checkerboard assay.

Experiment [12] deals with Enterococcus faecalis. Description: Synergistic antibiofilm activity against vancomycin-resistant Enterococcus faecalis ATCC 51575 in TSB broth assessed as dispersal of glucose-induced biofilm by measuring Bithionol MBEC preincubated with glucose for 48 hrs followed by compound addition and measured after 24 hrs by crystal violet staining based checkerboard assay.
The subject of experiment [13] is Enterococcus faecalis. Description: Synergistic antibiofilm activity against vancomycin-resistant Enterococcus faecalis ATCC 51575 in TSB broth assessed as dispersal of glucose-induced biofilm preincubated with glucose for 48 hrs followed by compound addition and further incubated for 24 hrs in presence of Nitroxoline by crystal violet staining based checkerboard assay.

Experiment [14] has as its system Enterococcus faecalis. Briefly: Synergistic antibiofilm activity against vancomycin-resistant Enterococcus faecalis ATCC 51575 in TSB broth assessed as dispersal of glucose-induced biofilm preincubated with glucose for 48 hrs followed by compound addition and further incubated for 24 hrs in presence of Bithionol by crystal violet staining based checkerboard assay.

The test system of experiment [15] is Enterococcus faecalis. Briefly: Synergistic antibiofilm activity against vancomycin-resistant Enterococcus faecalis ATCC 51575 in TSB broth assessed as dispersal of glucose-induced biofilm by measuring fractional inhibitory concentration index preincubated with glucose for 48 hrs followed by compound addition and further incubated for 24 hrs in presence of Nitroxoline by crystal violet staining based checkerboard assay.

Experiment [16] has as its system Enterococcus faecalis. Description: Synergistic antibiofilm activity against vancomycin-resistant Enterococcus faecalis ATCC 51575 in TSB broth assessed as dispersal of glucose-induced biofilm by measuring fractional inhibitory concentration index preincubated with glucose for 48 hrs followed by compound addition and further incubated for 24 hrs in presence of Bithionol by crystal violet staining based checkerboard assay.

Experiment [17] concerns Enterococcus faecium. Briefly: Synergistic antibiofilm activity against vancomycin-resistant Enterococcus faecium ATCC 700221 in TSB broth assessed as dispersal of glucose-induced biofilm […] preincubated with glucose for 48 hrs followed by compound addition and measured after 24 hrs by crystal violet staining based checkerboard assay.
The subject of experiment [18] is Enterococcus faecium. Briefly: Synergistic antibiofilm activity against vancomycin-resistant Enterococcus faecium ATCC 700221 in TSB broth assessed as dispersal of glucose-induced biofilm preincubated with glucose for 48 hrs followed by compound addition and further incubated for 24 hrs in presence of Nitroxoline by crystal violet staining based checkerboard assay.

Experiment [19] concerns Enterococcus faecium. Description: Synergistic antibiofilm activity against vancomycin-resistant Enterococcus faecium ATCC 700221 in TSB broth assessed as dispersal of glucose-induced biofilm preincubated with glucose for 48 hrs followed by compound addition and further incubated for 24 hrs in presence of Bithionol by crystal violet staining based checkerboard assay.
In experiment [20] the test system is Enterococcus faecium. Description: Synergistic antibiofilm activity against vancomycin-resistant Enterococcus faecium ATCC 700221 in TSB broth assessed as dispersal of glucose-induced biofilm by measuring fractional inhibitory concentration index preincubated with glucose for 48 hrs followed by compound addition and further incubated for 24 hrs in presence of Nitroxoline by crystal violet staining based checkerboard assay.

For experiment [21], the system named is Enterococcus faecium. Description: Synergistic antibiofilm activity against vancomycin-resistant Enterococcus faecium ATCC 700221 in TSB broth assessed as dispersal of glucose-induced biofilm by measuring fractional inhibitory concentration index preincubated with glucose for 48 hrs followed by compound addition and further incubated for 24 hrs in presence of Bithionol by crystal violet staining based checkerboard assay.

Experiment [22] has as its system Staphylococcus aureus. Description: Induction of drug resistance in methicillin-resistant Staphylococcus aureus USA 300 assessed as fold increase in MIC treated daily for 30 days. The conditions noted are these: time 30.0 day.
Experiment [23] relates to Staphylococcus aureus. Description: Induction of drug resistance in methicillin-resistant Staphylococcus aureus ATCC 33592 assessed as fold increase in MIC treated daily for 30 days. The conditions noted are these: time 30.0 day.

Data on two compounds can be found in ChEMBL document CHEMBL5113477, “Membrane acting Povarov-Doebner derived compounds potently disperse preformed multidrug resistant Gram-positive bacterial biofilms” (Eur J Med Chem, 2022).

With `FC(F)(F)c1n[nH]cc1[C@@H]1Nc2ccc(S(F)(F)(F)(F)F)cc2[C@H]2[C@@H]3CC[C@@H](C3)[C@H]21`, the MBEC in experiment [1] came to 2 µg/mL; in experiment [2], 32 µg/mL; in experiment [3] it was 32 µg/mL; in [4], 2 µg/mL; in [5], 2 µg/mL; in experiment [6], 8 µg/mL. Further, the MBEC was determined as 1 µg/mL in experiment [7]; 32 µg/mL in experiment [10]; 2 µg/mL in [11]; 2 µg/mL in [12]; 1 µg/mL in [13]; 1 µg/mL in experiment [14]. Moreover, the MBEC in [17] came to 4 µg/mL; in [18], 1 µg/mL; in [19] it was 1 µg/mL. Further, the “fractional inhibitory concentration index (FICI)” value in experiment [8] came out at 0.38; in experiment [9], 0.28; in experiment [15], 0.25; in experiment [16], 0.28; in experiment [20], 0.16; in experiment [21], 0.28.

Regarding `C/C(=C\C(=O)OCCCCCCCCC(=O)O)C[C@@H]1OC[C@H](C[C@@H]2O[C@H]2[C@@H](C)[C@H](C)O)[C@@H](O)[C@H]1O`, the fold change (FC) in [22] was over 60; in [23] it was over 250.
